Experimental data: article PMC12040169 (PLOS Biology, 2025)

Assay: in vitro
Conditions: human, hela cells, % viability

Row | Structure (SMILES) | viability at 28.5 h, 10 µM [%] | viability at 28.5 h, 10 µM (bulk resorufin, single well) [%]
1 | CCCN1CCN(C(=O)c2cnc(C)cn2)C(Cc2cccc(-c3cccs3)c2)C1=O (centres unmarked) [CBK285678] | 87.2 | –
2 | CC(C)n1c(=O)oc2cc(S(=O)(=O)NC(c3ccccc3)c3ccccc3)ccc21 [CBK286350] | 91.7 | –
3 | O=C(c1cccc(-c2cc3ccccc3oc2=O)c1)N1CCN(c2ccc([N+](=O)[O-])cc2Cl)CC1 [CBK269704] | 101 | –
4 | COc1ccc(-c2n[nH]c(=S)n2CC(=O)N2CCN(c3cccc(C)c3)CC2)cc1 [CBK295352] | 88.6 | –
5 | CCc1ccc(CN(C(=O)c2cc(OC)c(OC)c(OC)c2)C2CCS(=O)(=O)C2)cc1 (centres unmarked) [CBK293961] | 98.4 | –
6 | Cc1cc(C)c2c(N)c(-c3ccncc3)sc2n1 [CBK288189] | 88.7 | –
7 | Cc1cc(I)cnc1NC(=O)CSc1ccc(Cl)cc1 [CBK266438] | 94.3 | –
8 | Cc1ccnc(SCC(=O)N2CCc3ccccc3C2)n1 [CBK288218] | 91.7 | –
9 | CCN(CC)CCN(Cc1ccc2c(c1)OCO2)C(=O)Nc1ccc(C)cc1 [CBK159059] | 89.3 | –
10 | CC1(C)CC(N2CN(C3CC(C)(C)NC(C)(C)C3)CN(C3CC(C)(C)NC(C)(C)C3)C2)CC(C)(C)N1 [CBK261985] | 90.8 | –
11 | CC(C)(O)C1CCCN(C(=O)c2coc(COc3cccc(F)c3)n2)C1 (centres unmarked) [CBK306977] | 77.4 | –
12 | COc1ccc(F)cc1-c1ccc(CC2(C(=O)NCc3cccs3)CCOCC2)cc1 [CBK285540] | 112 | –
13 | CN(C)C(=O)Cc1ccc(-c2ccccc2)cc1 [CBK012162] | 94.2 | –
14 | Nc1cc2cccnc2c(-c2ccc(OC(F)(F)F)cc2)n1 [CBK061926] | 90 | –
15 | CCOC(=O)c1c(-c2cccs2)csc1NC(=O)CN1CCCCCC1 [CBK265294G] | 106 | –
16 | O=C(c1cnccc1C(F)(F)F)N1Cc2ccccc2C1 [CBK200323] | 105 | –
17 | O=C(NCc1c(O)c(Cl)cc(Cl)c1Cl)c1ccccc1 [CBK260920] | 94.2 | –
18 | COc1cccc(NC(=O)CCN2C(=O)c3ccccc3S2(=O)=O)c1 [CBK266003] | 92.3 | –
19 | CN(C)c1ccc(-n2ccn(S(=O)(=O)c3ccc4ccccc4c3)c2=O)cc1 [CBK106607] | 93.5 | –
20 | COc1ccc(S(=O)(=O)Nc2cc(C(=O)O)ccc2C)cc1NC(C)=O [CBK296946] | 93.4 | –
21 | S=C(NCCCN1CCOCC1)Nc1cccc(Cl)c1 [CBK263255] | 95 | –
22 | Cc1ccccc1C(NC(=O)C1CCN(C/C=C/c2ccccc2)CC1)c1ncccc1C (centres unmarked) [CBK147980] | 102 | –

Row | Structure (SMILES) | viability at 28.5 h, 10 µM [%] | viability at 28.5 h, 10 µM (bulk resorufin, single well) [%]
23 | Cc1cc(NC(=O)Cn2nc(C(F)(F)F)c(Cl)c2C)no1 [CBK018709] | 87.3 | –
24 | Cn1cc(CNCC2CCN(c3ccccc3)C2)c(-c2cccnc2)n1 (centres unmarked) [CBK304155] | 95.7 | –
25 | Cc1ccc(-n2nnc3c(SCC(=O)Nc4ccc(F)cc4)ncnc32)cc1 [CBK287542] | 112 | –
26 | CC(=O)SCCC(=O)N1C(C)CCCC1C(=O)O (centres unmarked) [CBK261315] | 93.1 | –
27 | Cc1cc(C)n(C(C)C(=O)N2CCC(Nc3cccnc3)CC2)n1 (centres unmarked) [CBK305917] | 94.2 | –
28 | O=S(=O)(Nc1nccnc1Cl)c1ccccc1Cl [CBK149698] | 84.3 | –
29 | Cn1ccc(C(=O)N2CCC[C@H](C(=O)c3cccs3)C2)n1 [CBK282412] | 98 | –
30 | NC(=S)Nn1c(CCC(=O)O)ccc1-c1ccccc1 [CBK265942] | 100 | –
31 | CCN1CCCC1Cn1c(=S)[nH]c2ccccc2c1=O (centres unmarked) [CBK267849] | 92.8 | –
32 | COc1cc(C(=O)CCN2CCCCC2)cc(OC)c1OC [CBK015639C] | 107 | –
33 | O=C(C1=C(O)C(=O)N(CCN2CCOCC2)C1c1cccnc1)c1ccco1 (centres unmarked) [CBK264570] | 97.4 | –
34 | CC[C@H]1CN(C(=O)N2CCOCC2)CC[C@H]1CC(=O)NCCOC [CBK289134] | 100 | –
35 | O=C(c1ccccc1F)N1CCN(C(=O)[C@@H]2C[C@@H]3C=C[C@H]2C3)CC1 [CBK282011] | 89.1 | –
36 | COC(=O)c1sc2ncccc2c1NS(=O)(=O)c1cc(Br)ccc1OC [CBK049971] | 91.9 | –
37 | O=C(O)COc1ccc(NC(=O)c2ccc3c(c2)C(=O)N(CC2CCCO2)C3=O)cc1 (centres unmarked) [CBK263719] | 92.5 | –
38 | O=C(Nc1ccc(-c2nc3ccc(-c4nc5ccc(NC(=O)c6cccc7ccccc67)cc5[nH]4)cc3[nH]2)cc1)c1cccc2ccccc12 [CBK261161] | 94.4 | –
39 | COC(=O)Cn1c(C(C)(C)C)cn2c3c(=O)n(C)c(=O)n(C)c3nc12 [CBK307555] | 84.3 | –
40 | CCn1ncc(CN(CCN(C)C)Cc2cccs2)c1C [CBK282958] | 107 | –
41 | Cc1oc2ccc(O)cc2c1C(=O)N(C)C(C)Cc1ccccn1 (centres unmarked) [CBK282627] | 96.2 | –
42 | COc1ccc(C2CC(=O)C3=C(C2)NC(C)=C(C#N)C3c2cccc(F)c2)cc1 (centres unmarked) [CBK293922] | 91.6 | –
43 | NC(=O)[C@@H]1C[C@@H](O)[C@H](O)[C@H]2[C@@H]1N(c1ccc(Cl)cc1)C(=S)N2Cc1cccs1 [CBK288930] | 94.7 | –
44 | O=C1CC2(CCN(C(=O)c3ccncc3)CC2)Oc2c(Br)cc(Br)cc21 [CBK156437] | 95.7 | –

Row | Structure (SMILES) | viability at 28.5 h, 10 µM [%] | viability at 28.5 h, 10 µM (bulk resorufin, single well) [%]
45 | COC(=O)c1c(NC(=O)C2CC=CCC2C(=O)O)sc2c1CCC(C)C2 (centres unmarked) [CBK262655] | 101 | –
46 | O=C(c1ccc(OC(F)F)cc1)N1CCCCC1 [CBK074223] | 86.7 | –
47 | O=c1cc(C(F)F)c2cn(C3CCCC3)nc2[nH]1 [CBK288016] | 91.8 | –
48 | Cc1nsc2c1[C@H]1[C@H](O)[C@H](O)C[C@H]1C1(CCC1)N2 [CBK303258] | 100 | –
49 | Cc1nc2ccc(Cl)cn2c1CN1CCN(C2CCCC2)C(=O)C1 [CBK281452] | 84 | –
50 | Cn1c(-c2ccc(CN3CCCC3)cc2)cc2onc(-c3cccnc3)c2c1=O [CBK048501C] | 99.1 | –
51 | COc1cccc(OCC(=O)Nc2ccc(Cl)cc2C(=O)O)c1 [CBK264208] | 105 | –
52 | CCOC(=O)C(NCCc1ccc(OC)c(OC)c1)(NC(=O)c1ccco1)C(F)(F)F (centres unmarked) [CBK013715] | 123 | –
53 | CN1CCC(CN(C)Cc2ccc3cccc(Cl)c3n2)C1 (centres unmarked) [CBK282615] | 90.2 | –
54 | CC(C)C(NS(=O)(=O)c1ccc(Oc2ccccc2Cl)cc1)C(=O)O (centres unmarked) [CBK267195] | 100 | –
55 | O=C1Cc2cc3ccccc3cc2C2(CCN(C(=O)C3CCC3C(=O)O)CC2)N1 (centres unmarked) [CBK047252] | 92.5 | –
56 | CSc1cc(C)c2c(c1)COC1(CCN(C(=O)N[C@@H](C)c3ccccc3)CC1)O2 [CBK060747] | – | 94.5
57 | O=c1[nH]cc(-c2ccc(F)cc2)cc1CNCc1ccccc1F [CBK284696] | 86.1 | –
58 | O=C(COc1cc(C(=O)O)nc2ccccc12)NCc1ccc(Cl)cc1 [CBK287247] | 92 | –
59 | O=C(CCCN1C(=O)/C(=C/c2ccc3c(c2)OCO3)SC1=S)Nc1ccc([N+](=O)[O-])cc1 [CBK264623] | 105 | –
60 | COc1ccc(CC(=O)N2CCC(Cc3cccc(-c4cccs4)c3)(C(N)=O)CC2)cc1 [CBK285744] | 93.2 | –
61 | Cc1ccc(Cl)cc1N(CC(=O)Nc1ccccc1C(=O)O)S(C)(=O)=O [CBK264020] | 89.5 | –
62 | O=C(O)CCc1ccc(NS(=O)(=O)c2ccc(N3CCCC3=O)cc2)cc1 [CBK299788] | 116 | –
63 | COC(=O)CN1C(=O)S/C(=C/c2ccc(OCc3cccc(C(=O)O)c3)c(Cl)c2)C1=O [CBK265262] | 90.2 | –
64 | Cc1nccn1CCC1CCN(C(=O)c2cn3ccccc3n2)CC1 [CBK281868] | 91.2 | –
65 | CCCS(=O)(=O)N1CCN(S(=O)(=O)c2ccc(NC(C)=O)cc2)CC1 [CBK264288] | 96.6 | –
66 | COc1ccc(CCC(=O)N2CCCCC2c2ncc(-c3cccc(F)c3)[nH]2)cc1OC (centres unmarked) [CBK291148] | 90.3 | –

Row | Structure (SMILES) | viability at 28.5 h, 10 µM [%] | viability at 28.5 h, 10 µM (bulk resorufin, single well) [%]
67 | Cc1cc(NS(=O)(=O)c2cccc(C(F)(F)F)c2)n(C)n1 [CBK067244] | 94.1 | –
68 | O=C(NCC1CCCO1)c1ccc2c(c1)C(=O)N(c1ccccc1-c1ccccc1)C2=O (centres unmarked) [CBK262777] | 86 | –
69 | Nc1ncc(-c2ccoc2)nc1NCc1ccncc1 [CBK063656] | 95.1 | –
70 | CN(C)CCCC(=O)Nc1cccc2[nH]ccc12 [CBK159660] | 99.9 | –
71 | Cc1cc2cccc(NC(=O)NCc3cncn3CC(C)C)c2o1 [CBK306715] | 101 | –
72 | C=Cn1cc(CN2CCN(C3CCCCC3)C(=O)C2)c(C)n1 [CBK282561] | 109 | –
73 | COc1ccc(Nc2nc(-c3ccccc3)c(C)s2)c(OC)c1 [CBK131709] | 106 | –
74 | N#CCn1nnc(-c2ccc3c(c2)OCO3)n1 [CBK062663] | 98.7 | –
75 | O=C(O)CCn1cc(Br)c([N+](=O)[O-])n1 [CBK286916] | 90 | –
76 | CC12CCC(=O)N1CCCN2 (centres unmarked) [CBK067102T] | 94.5 | –
77 | FC(F)(F)c1cc(-c2cc(N3CCC(N4CCCCC4)CC3)ncn2)cc(C(F)(F)F)c1 [CBK037692] | 92.6 | –
78 | Cc1csc2nc(-c3ccccc3)cn12 [CBK098072] | 108 | –
79 | COc1ccc(OC)c2[nH]c(C(=O)N3CCCC34CC=CC4)cc12 [CBK282814] | 85.9 | –
80 | O=C(O)COc1ccccc1/C=C1\C(=O)NC(=O)N(c2ccc(OCc3ccccc3)cc2)C1=O [CBK265419] | – | 114
81 | CN1CCN(C(=O)CCn2c(C(F)F)cc3cccnc32)CC1 [CBK285023] | 101 | –
82 | CN(Cc1ccc(-c2ccc(S(C)(=O)=O)cc2)nc1)C1CCN(C(=O)CC2CCCCC2)CC1 [CBK164105T] | 92.6 | –
83 | O=C(N[C@H]1C[C@@H]2C(=O)N[C@H]3CCN(C(=O)Cc4cccs4)[C@@H]3C(=O)N2C1)C1CCC1 [CBK289269] | 117 | –
84 | NCCCNC(=O)c1ccc(-c2cccc(C(F)(F)F)c2)o1 [CBK107454] | 89.4 | –
85 | CC(=O)Nc1sc2c(c1C(=O)O)CCc1ccccc1-2 [CBK126812] | 96.9 | –
86 | CCOC(=O)c1noc2nc(C)n(Cc3nc(-c4ccccc4)oc3C)c(=O)c12 [CBK294400] | 89.6 | –
